In patent US9149038B2, “4-amino-6-(heterocyclic)picolinates and 6-amino-2-(heterocyclic)pyrimidine-4-carboxylates and their use as herbicides” (Dow AgroSciences LLC, priority 2013, dated 2015):
Where two headings read alike, the source gives them in different places.

Columns and labels:
[1] = test system: Key Broadleaf Weed and Crop Species; test: Post-Emergent Test II: postemergent herbicidal activity, visual rating after 14 d (Table 7); assay type: in vivo; conditions: post-emergence, 336 h; for pest or weed control at 35 g/ha: 35 g ai/ha; for pest or weed control at 70 g/ha: 70 g ai/ha; for pest or weed control at 140 g/ha: 140 g ai/ha
In short: (§1)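 Greenhouse plants at first or second true leaf stage sprayed with compound in acetone/DMSO-based spray solution with crop oil concentrate and Triton X-155 at 187 L/ha, tested at highest rate and ½× to 1/16× dilutions; solvent blank controls. Injury rated visually 0–100% versus untreated plants after 14 d.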

[2] = test system: Key Grass and Sedge Weeds as well as Grass Crops; test: Post-Emergent Test II: postemergent herbicidal activity, visual rating after 14 d (Table 8); assay type: in vivo; conditions: post-emergence, 336 h; for pest or weed control at 35 g/ha: 35 g ai/ha; for pest or weed control at 70 g/ha: 70 g ai/ha; for pest or weed control at 140 g/ha: 140 g ai/ha
In short: as §1

[3] = ABUTH: velvetleaf (Abutilon theophrasti), read-out: Visual Growth Reduction (%) 14 Days After Application ABUTH
[4] = AMARE: redroot pigweed (Amaranthus retroflexus), read-out: Visual Growth Reduction (%) 14 Days After Application AMARE
[5] = BRSNN: oilseed rape, canola (Brassica napus), read-out: Visual Growth Reduction (%) 14 Days After Application BRSNN
[6] = CHEAL: lambsquarters (Chenopodium album), read-out: Visual Growth Reduction (%) 14 Days After Application CHEAL
[7] = EPHHL: wild poinsettia (Euphorbia heterophylla), read-out: Visual Growth Reduction (%) 14 Days After Application EPHHL
[8] = HELAN: sunflower (Helianthus annuus), read-out: Visual Growth Reduction (%) 14 Days After Application HELAN
[9] = barnyardgrass (Echinochloa crus-galli), read-out: Visual Growth Reduction (%) 14 Days After Application, ECHCG
[10] = giant foxtail (Setaria faberi), read-out: Visual Growth Reduction (%) 14 Days After Application, SETFA
[11] = maize, corn (Zea mays), read-out: Visual Growth Reduction (%) 14 Days After Application, ZEAMX
[12] = rice (Oryza sativa), read-out: Visual Growth Reduction (%) 14 Days After Application, ORYSA
[13] = wheat, spring (Triticum aestivum), read-out: Visual Growth Reduction (%) 14 Days After Application, TRZAS
[14] = yellow nutsedge (Cyperus esculentus), read-out: Visual Growth Reduction (%) 14 Days After Application, CYPES

`Nc1cc(-c2c(F)ccc3c2OC(F)(F)O3)nc(C(=O)O)c1Cl` [Compound 91] gave a pest or weed control at 35 g/ha [1, 3] of 60 to 74%, a pest or weed control at 70 g/ha [1, 3] of 75 to 84% and a pest or weed control at 140 g/ha [1, 3] of 75 to 84%. The pest or weed control at 35 g/ha [1, 4] was 95 to 100%, the pest or weed control at 70 g/ha [1, 4] was 95 to 100% and the pest or weed control at 140 g/ha [1, 4] was 95 to 100%. It also gave a pest or weed control at 35 g/ha [1, 5] of 0 to 29%, a pest or weed control at 70 g/ha [1, 5] of 45 to 59% and a pest or weed control at 140 g/ha [1, 5] of 60 to 74%. For the same molecule, the pest or weed control at 35 g/ha [1, 6] was 95 to 100%, the pest or weed control at 70 g/ha [1, 6] was 95 to 100% and the pest or weed control at 140 g/ha [1, 6] was 95 to 100%. It also gave a pest or weed control at 35 g/ha [1, 7] of 0 to 29%, a pest or weed control at 70 g/ha [1, 7] of 0 to 29% and a pest or weed control at 140 g/ha [1, 7] of 0 to 29%. The pest or weed control at 35 g/ha [1, 8] was 0 to 29%, the pest or weed control at 70 g/ha [1, 8] was 0 to 29% and the pest or weed control at 140 g/ha [1, 8] was 0 to 29%. The pest or weed control at 35 g/ha [2, 9] was 0 to 29%, the pest or weed control at 70 g/ha [2, 9] was 0 to 29% and the pest or weed control at 140 g/ha [2, 9] was 0 to 29%. The pest or weed control at 35 g/ha [2, 10] was 0 to 29%, the pest or weed control at 70 g/ha [2, 10] was 0 to 29% and the pest or weed control at 140 g/ha [2, 10] was 0 to 29%. For the same molecule, the pest or weed control at 35 g/ha [2, 11] was 0 to 29%, the pest or weed control at 70 g/ha [2, 11] was 0 to 29% and the pest or weed control at 140 g/ha [2, 11] was 0 to 29%. For the same molecule, the pest or weed control at 35 g/ha [2, 12] was 0 to 29%, the pest or weed control at 70 g/ha [2, 12] was 0 to 29% and the pest or weed control at 140 g/ha [2, 12] was 0 to 29%. For the same molecule, the pest or weed control at 35 g/ha [2, 13] was 0 to 29%, the pest or weed control at 70 g/ha [2, 13] was 0 to 29% and the pest or weed control at 140 g/ha [2, 13] was 0 to 29%. It also gave a pest or weed control at 35 g/ha [2, 14] of 0 to 29%, a pest or weed control at 70 g/ha [2, 14] of 0 to 29% and a pest or weed control at 140 g/ha [2, 14] of 0 to 29%.
